Experimental findings from patent US20230149326A1, “PHARMACEUTICAL COMPOSITION FOR PREVENTING OR TREATING MUSCULAR WEAKNESS-RELATED DISEASES COMPRISING ALVERINE, 4-HYDROXY ALVERINE, DERIVATIVE THEREOF, OR PHARMACEUTICALLY ACCEPTABLE SALT THEREOF” (AVENTI INC., priority 2020, published 2023) are described below.

Test [1] concerns C2C12 cells. Kind of test: Promotion of differentiation of myoblasts (MyHC fluorescent staining). Type of test: cell-based, mouse. On the procedure: C2C12 (American Type Culture Collection, CRL-1772™) cells are a myoblast cell line obtained from C3H mouse and is used in myoblast differentiation research. The C2C12 cells were cultured using growth media, and then cultured using differentiation media for differentiation induction. Here, DMEM supplemented with 10% fetal bovine serum was used as growth media (GM), and DMEM supplemented with 5% horse serum (HS) was used as differentiation media (DM). In order to confirm the effect of alverine citrate on promoting the differentiation of myoblasts, C2C12 cells were dispensed in the GM of Example 1.1 and cultured for 24 hours, and then the C2C12 cells were treated with DMSO, insulin, or alverine citrate, and induced for differentiation over 3 days. […] Here, the DMSO, insulin and alverine citrate used in the experiment were all purchased from Sigma-Aldrich. The group treated with insulin was used as the positive control group. In particular, C2C12 cells were dispensed in a 6-well plate treated with the GM of Example 1.1 at a concentration of 5×10^5 cells per plate and after 24 hours, were replaced with DMEM media supplemented with 5% HS and induced for differentiation. Thereafter, the cells were treated with DMSO, insulin (1.72 μM) or alverine citrate (0.01 μM, 0.1 μM, 1 μM or 10 μM). After 3 days, after removing the media, the cells were washed with phosphate buffer solution (1× PBS) and treated with paraformaldehyde (4%) and fixed at room temperature for 15 minutes. Then, after washing three times with phosphate buffer solution (1× PBS), PBS containing 0.3% triton X-100 was treated with permeabilization buffer and allowed to react at room temperature for 10 minutes. After washing three times with phosphate buffer solution (1× PBS), PBST (blocking buffer, PBS containing 0.5% Tween 20) containing 2% bovine serum albumin was administered and allowed to react for 30 minutes to suppress nonspecific binding of antibodies. After washing with phosphate buffer (1× PBS) three times, 100 μL of primary antibodies (SC-20641, Santa Cruz Biotechnology) to MYH3 diluted to 1:500 were added and allowed to react at room temperature for 1 hour. Thereafter, after washing with phosphate buffer (1× PBS) three times, 100 μL of secondary antibodies (Goat anti-Rabbit IgG-HRP) diluted to 1:5,000 were added and allowed to react at room temperature for 1 hour. After 1 hour, for nuclear staining, after washing with phosphate buffer (1× PBS) three times, the blocking buffer was treated with diluted DAPI dye and allowed to react at room temperature for 10 minutes. Thereafter, after washing with phosphate buffer (1× PBS) three times, the washed cover glass was measured for absorbance at a wavelength of 450 nm and a fluorescent image was taken using a fluorescence microscope. The anti-MyHC antibody stained area was analyzed using imageJ (Java-based image processing program). To confirm the effect of 4-hydroxy alverine on promoting myoblast differentiation, following the same method as Example 1, DMSO, insulin (1.72 μM), alverine citrate (0.01 μM, 0.1 μM, 1 μM or 10 μM), 4-hydroxy alverine (0.01 μM, 0.1 μM, 1 μM or 10 μM) were each administered, and differentiation to myotubes and changes in myotube thickness and diameter were observed.

Test [2] concerns C2C12 cells. Briefly: Myotube atrophy induced by C26 cancer cell conditioned medium (cachexia model). Type of test: cell-based, mouse. The following applies: 1 μM; differentiation media with 33% CM, 3 days. On the procedure:
In order to confirm a cachexia treatment effect of alverine citrate and 4-hydroxy alverine, an experiment mimicking a tumor-growth environment by treatment of a cancer cell conditioned medium (CM) was conducted as an ex vivo approach. First, cancer cell CM was prepared using a C26 cancer cell line. Here, as cancel cell growth media (GM), RPMI1640 media supplemented with 10% fetal bovine serum was used. The C26 cancer cell line was cultured using a 100 mm cell culture plate and the cancer cell GM. Here, the media were removed when cell confluency reached 90%. Then, after washing with phosphate buffer (1× buffer), the prepared differentiation media were treated following the same process as in Example 1. After 24 hours, a C26 cancer cell line CM was obtained and filtered using bottle top filters (Thermo, PES, 1 L) before use.
C2C12 cells were dispensed in a 6-well plate treated with the GM of Example 1.1 at a concentration of 5×10^5 cells per plate and after 24 hours, were replaced with DMEM media supplemented with 5% HS and induced for differentiation. […] Here, by treating the experimental groups with 1 μM alverine citrate (AC) and 4-hydroxy alverine (4HA), the effect of suppressing myotube atrophy was evaluated. […] Following the same method as in Example 1.2, by florescent staining using antibodies against MyHC, the expression amount of MyHC was measured.

For test [3], the system named is C2C12 cells. Briefly: Effect of alverine derivatives on promoting myoblast differentiation. Type of test: cell-based, mouse. The following applies: 1 μM, 4 days; compared with DMSO alone. On the procedure:
C2C12 (American Type Culture Collection, CRL-1772™) cells are a myoblast cell line obtained from C3H mouse and is used in myoblast differentiation research. The C2C12 cells were cultured using growth media, and then cultured using differentiation media for differentiation induction. Here, DMEM supplemented with 10% fetal bovine serum was used as growth media (GM), and DMEM supplemented with 5% horse serum (HS) was used as differentiation media (DM).
In order to confirm the effect of an alverine derivative on promoting the differentiation of myoblasts, C2C12 cells were dispensed in the GM of Example 1.1 and cultured for 24 hours. Then, the C2C12 cells were treated with DMSO (Sigma-Aldrich), insulin, alverine (Sigma-Aldrich), or 27 types of alverine derivatives, each at a concentration of 1 μM and were induced for differentiation over 4 days. […]
After washing three times with phosphate buffer (1× PBS), PBST (blocking buffer, PBS containing 0.5% Tween 20) containing 2% bovine serum albumin was administered and allowed to react for 30 minutes to suppress nonspecific binding of antibodies. […] Thereafter, after washing with phosphate buffer (1× PBS) three times, the washed cover glass was measured for absorbance at a wavelength of 450 nm and a fluorescent image was taken using a fluorescence microscope.

Another test has as its system sarcopenia-induced mice. Kind of test: Running ability test, sarcopenia-induced mouse. The conditions noted are these: hindlimb-immobilized mice; oral 150 mg/kg/day (AC-H); compared with normal mouse. Format: in vivo. On the procedure:
Running ability was measured using a treadmill designed specific for this experiment. First, aversive stimuli were provided by letting electric stimuli flow at the starting point. Before the measurement, the mice were acclimatized at 8 m/min for 10 minutes. The running time was recorded by allowing mice in each group to run in separate lanes until exhaustion. Exhaustion was defined such that when the mouse stays outside the lanes for 10 seconds or more without running, the mouse was determined to be exhausted and the time was recorded. It was not possible to repeat this experiment on the same mouse. The mouse was placed on the treadmill and the test was started at 8 rpm, and the speed was accelerated by 2 rpm every 10 minutes to a maximum speed of 20 rpm. The slope of the lane started from a zero-degree incline and then was elevated to a five-degree incline after 30 min from the start. In order to confirm a muscle strength enhancement effect of alverine citrate, sarcopenia-induced mice were administered with alverine citrate and tested for running ability. After the treadmill running test, muscle weight was measured. In particular, the hindlimb of 10 week-old C57BL/6 male mice was immobilized using a surgical stapler (Autosuture Royal 35W stapler). […] After that, running ability was measured. […] Running ability was measured by the same method as in Example 2.2.

`CCN(CCCc1ccccc1)CCCc1ccc(O)cc1` [4-hydroxy alverine, 4-[3-[ethyl(3-phenylpropyl)amino]propyl]phenol]: the “differentiation of myoblasts to myotubes” value in the test on C2C12 cells [1] (compared with DMSO or insulin (1.72 μM), 0.01-10 μM) is listed as “more differentiated to myotubes”. Moreover, in the test with C2C12 cells [1] (compared with alverine at the same concentration), the differentiation promoting effect entry was “superior differentiation promoting effect than alverine”. In addition, in the test with C2C12 cells [2], the myotube atrophy result is listed as “myotube atrophy was suppressed”.

Consider `CCN(CCCc1ccccc1)CCCc1ccccc1` [Alverine, N-ethyl-3-phenyl-N-(3-phenylpropyl)propan-1-amine], for which the “differentiation of myoblasts to myotubes” value with C2C12 cells [3] is “promoted the differentiation to myotubes”. In addition, the running time entry in the test with sarcopenia-induced mice is given as “increased compared to the normal mouse”.

As to “insulin: positive control group, purchased from Sigma-Aldrich”, the “differentiation of myoblasts to myotubes” value in the test with C2C12 cells [1] (compared with DMSO alone, 3 days, insulin 1.72 μM, alverine citrate 0.01-10 μM) was “more differentiated to myotubes”.
